Values joined by “and” are separate entries in the source; they are usually repeats but may differ in a detail not shown here. Equal values may be shown once. Where a name gives a salt, the structure may show the parent alone. Read-outs that look alike come from different tables or passages of the source.
Columns and labels:
[1] = Fluorescence quantum yield determination; format: physicochemical; settings: DMSO; reference rhodamine B in ethanol or quinine sulfate in 0.5 M H2SO4
Procedure: (§1) The ^1H NMR spectroscopic measurements were carried out using a Bruker-600 NMR at 600 MHz with tetramethysilane (TMS) as internal reference. Electrospray ionization (ESI) mass spectra were performed on a Bruker MicroToF ESI LC-MS System in positive-ion mode. The steady-state absorption spectra were obtained with a ThermoFisher Evolution 220 UV-Vis spectrophotometer in 1 cm path length quartz cells. Fluorescence spectra were recorded using spectrophotometer (SPEX FluoroLog-3). Quantum yield in DMSO was measured relative to the fluorescence of Rhodamine B (Φ=0.65) in ethanol or quinine sulfate (Φ=0.55) in 0.5 M·L^−1 H2SO4. FT-IR spectrum was taken on a PerkinElmer Spectrum 100 FT-IR Spectrometers. Confocal fluorescent images of living cells were performed using Nikon A1R-si Laser Scanning Confocal Microscope (Japan), equipped with lasers of 405/488/561/638 nm. STORM images were performed on a NSTORM (Nikon, Japan), featuring a CFI Apo TIRF 100× oil objective (NA 1.49) on an inverted Nikon Ti Eclipse microscope with a quad cube filter (Chroma, zt405/488/561/640 m-TRF), piezo stage, and Perfect Focus System (Nikon) for Z-stability. Light source are hand-held UV lamp, BlueView Transilluminator (470 nm centred, Vernier), Prior Lumen200 with 615/30 filter and 850 LED (Mouser Electronics).
Quantum yields were measured with Rhodamine B as reference (Φ=0.65) or quinine sulfate (Φ=0.55) in 0.5 M H2SO4. Fluorescence measurements were performed in 1 cm quartz cells with 5 μM samples in DMSO on spectrophotometer (SPEX FluoroLog-3) (slits 5×5). The fluorescence quantum yield, Φ (sample), were calculated according to equation as following:
[formula] Φ: quantum yield; I: integrated emission intensity; OD: optical density at the excitation wavelength; d: refractive index of solvents, dDMSO=1.478; dethanol=1.36; dwater=1.33.

[2] = UV-vis absorption and fluorescence spectra of thio-caged and uncaged fluorophores; format: physicochemical; settings: for λem / λabs: DMSO (50 μM); for λabs: absorption maxima
Procedure: Encouraged by the excellent photoactivation properties of SNile Red, Lawesson's reagent was employed to introduce thiocarbonyl moieties into several different fluorophores, such as phthalimide (PI), coumarin (Cou) and acridone (ACD), obtaining yields ranging from 20-80% (FIG. 1). Next, characterization of the spectroscopic and photochemical properties of these thiocaged fluorophores and their oxidized products using UV-vis and fluorescence spectroscopies was performed (Table 1). […] Double thiocarbonyl substitution on 4-dimethylaminophthalimide (4-DMAP, FIG. 1) produced an even larger bathochromic shift of 166 nm. […] It was hypothesized that the red-shift and enhanced absorption seen with thiocarbonyl compounds were due to the reduced energy gap between the HOMO-LUMO in these fluorophores. This is consistent with the computational results discussed below. […] To assess the efficiency of photoactivation for the various thio-caged fluorophores, UV-vis and fluorescence spectra were recorded after different irradiation times (FIGS. 4-8).
as §1

[3] = Photoactivation (turn-on) of thio-caged fluorophores in solution by light irradiation; format: physicochemical; settings: DMSO; footnote d: 615 nm, 0.4 μW cm^−2
Text: To determine whether a minimal one atom sulfur-for-oxygen substitution within fluorophores can lead to fluorescence quenching, thio-caged Nile Red (SNile Red, FIG. 1) was synthesized, in which a carbonyl group was replaced with a thiocarbonyl moiety. Treatment of Nile Red with Lawesson's reagent in refluxing benzene produced the desired SNile Red in a yield of 40%. […] Irradiation of SNile Red with red light (615 nm, 0.4 μW cm-2) led to the regeneration of fluorescent Nile Red in a high yield (FIG. 2A). The absorption maxima of SNile Red at 298, 368 and 652 nm were blue-shifted after desulfuration to 315 and 556 nm, in a good agreement with the absorption spectrum of authentic synthesized Nile Red (FIG. 2B). The A556/A652 value, representing the ratio of the absorbance maxima of Nile Red and SNile Red, increased from 0.25 to 30 after desulfuration reaction (FIG. 2B). Upon irradiation with red light, the fluorescence intensity of the desulfurated material at 626 nm increased 280-fold, accompanied by a change in fluorescence from dark to red (FIG. 2C). To evaluate the proper light source for SNile Red photoactivation, SNile Red was irradiated with either 470 nm, 615 nm, or 850 nm light for different times and fluorescence intensities at 626 nm were recorded. […] To further characterize the photoactivated product of SNile Red, ^1H NMR and ESI-MS spectral changes were measured in the process of photoactivation (FIG. 2A). […] Signals corresponding to phenyl moiety protons at 8.64, 8.62, 7.85, 7.73, 7.36, 7.04, and 6.79 ppm gradually disappeared, and were replaced by new signals appearing at 8.57, 8.13, 7.81, 7.72, 7.63, 6.85, 6.69 and 6.30 ppm, respectively. […] The photoactivated product was also characterized by ESI-mass spectrometric analysis FIG. 3). The observed m/z 319.2 corresponding to Nile Red confirms the photoactivation product of SNile Red is its oxo form. Both dialkylthioketones and diarylthioketones are known to undergo photo-oxidation reaction under oxygen and light to give the corresponding ketones (Coyle, 1985, Corsaro and Pistara, 1998). To investigate the effects of dissolved oxygen and light on the photoactivation of thio-caged fluorophores, the time profile of the fluorescence of SNile Red was measured in the presence or absence of light, or oxygen. […] To study the effect of oxygen during the photoactivation, the inventors prepared an oxygen-free SNile Red solution by bubbling nitrogen gas and irradiated at 615 nm. […] Inspired by the photoactivation mechanism of thioketones, it was hypothesized that singlet oxygen generated by self-sensitization can be the active species to oxidize thiocarbonyl groups within fluorophores (Coyle, 1985 and Corsaro and Pistara, 1998). […] The singlet oxygen quantum yield (DA) was further determined to be 0.36 with considering the absorption correction factor over the 600-630 nm region (Bonacin et al., 2009 and Adarsh et al., 2010) by referring to methylene blue (MB) (ΦΔ,MB=0.57 in dichloromethane; Li et al., 2013).
Encouraged by the excellent photoactivation properties of SNile Red, Lawesson's reagent was employed to introduce thiocarbonyl moieties into several different fluorophores, such as phthalimide (PI), coumarin (Cou) and acridone (ACD), obtaining yields ranging from 20-80% (FIG. 1). Next, characterization of the spectroscopic and photochemical properties of these thiocaged fluorophores and their oxidized products using UV-vis and fluorescence spectroscopies was performed (Table 1). […] Double thiocarbonyl substitution on 4-dimethylaminophthalimide (4-DMAP, FIG. 1) produced an even larger bathochromic shift of 166 nm. […] It was hypothesized that the red-shift and enhanced absorption seen with thiocarbonyl compounds were due to the reduced energy gap between the HOMO-LUMO in these fluorophores. This is consistent with the computational results discussed below. […]

[4] = tested on: H2B-Halo expressed CHO-K1 cells; test: Turn-on of 5NP-Halo in cells; format: cell-based; settings: 10 μM for 1 h
Text: FIGS. 19A & 19B show turn-on of 5NP-Halo in H2B-Halo expressed CHO-K1 cells.

[5] = cited from earlier work
[6] = in dichloromethane; cited from earlier work

| SMILES | ø (fluorescence quantum yield) [1] | λem [2] | λabs [2] | also measured |
| --- | --- | --- | --- | --- |
| O=c1ccc2ccccc2o1 [Cou, coumarin] | 0.71 | 445 nm | – | – |
| S=c1c2ccccc2[nH]c2ccccc12 [SACD] | <0.001 | 409 nm and 427 nm and 463 nm | 430 nm and 456 nm | Turn-on (x-fold) [3]: 180^d x-fold |
| O=C(CN1C(=S)c2cccc3c(N4CCCC4)ccc(c23)C1=S)NCCOCCOCCCCCCCl [Dye 5NP-Halo] | – | – | – | fluorescence upon photoactivation of treated cells [4]: enhanced fluorescence |
| C=C[C@H]1C[N@@]2CC[C@H]1C[C@H]2[C@H](O)c1ccnc2ccc(OC)cc12 [quinine sulfate] | – | – | – | fluorescence quantum yield Φ of reference ([5]; in 0.5 M H2SO4): 0.55 |
| CN(C)c1ccc2nc3ccc(=[N+](C)C)cc-3sc2c1 [methylene blue] | – | – | – | singlet oxygen quantum yield (ΦΔ,MB) of reference [6]: 0.57 |
| S=C1NC(=S)c2ccccc21 [Dye 2SPI] | <0.001 | 294 nm | – | Turn-on (x-fold) [3]: 30^d x-fold |
| O=c1c2ccccc2[nH]c2ccccc12 [ACD, acridone] | 0.64 | 406 nm and 428 nm and 455 nm | 361 nm and 379 nm and 398 nm | – |
| CCN(CC)c1ccc2c(-c3ccccc3C(=O)O)c3ccc(=[N+](CC)CC)cc-3oc2c1.[Cl-] [Rhodamine B] | – | – | – | fluorescence quantum yield Φ of reference ([5]; in ethanol): 0.65 |
| CN(C)c1ccc2c(c1)C(=S)NC2=S [SDMAP] | <0.001 | 447 nm | 326 nm and 390 nm and 563 nm | Turn-on (x-fold) [3]: 1600^d x-fold |
| CN(C)c1ccc2c(c1)C(=O)NC2=O [DMAP, 4-dimethylaminophthalimide] | 0.09 | 505 nm | 267 nm and 325 nm and 397 nm | bathochromic shift of absorption maximum ([2]; double thiocarbonyl substitution versus carbonyl compound): 166 nm |
| O=C1NC(=O)c2ccccc21 [OPI, phthalimide] | 0.001 | 347 nm | – | – |
| CCN(CC)c1ccc2nc3c4ccccc4c(=O)cc-3oc2c1 [Nile Red] | 0.46 | 626 nm | – | – |

From US11913884B2, “Visible light-activated dyes and methods of use thereof” (William Marsh Rice University, priority 2019, dated 2024)
